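All cell lines were grown in 96-well plates and treated with compound for 48 hours. TGI denotes the concentration required for complete inhibition of growth.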
Columns and labels:
Test in all cases: NCI anticancer screen, dose series, 48 h
[1] = test system: NCI/ADR-RES ovarian
[2] = test system: HT29 colon
[3] = test system: SK-MEL-5 melanoma
[4] = test system: SK-OV-3 ovarian
[5] = test system: UACC-62 melanoma
[6] = test system: OVCAR-8 ovarian
[7] = test system: NCI-H460 lung
[8] = test system: NCI-H226 lung
[9] = test system: SF-539 CNS
[10] = test system: MDA-MB-435
[11] = test system: ACHN renal
[12] = test system: A549 NSCLC
[13] = test system: OVCAR-3 ovarian
[14] = test system: SR leukemia
[15] = test system: SW-620 colon
[16] = test system: SNB-19 CNS
[17] = test system: KM12 colon
[18] = test system: 786-0 renal
[19] = test system: HCT-116 colon
[20] = test system: IGROV1 ovarian
[21] = test system: HOP-62 NSCLC
[22] = test system: T-47D breast
[23] = test system: CAKI-1 renal
[24] = test system: M14 melanoma
[25] = test system: OVCAR-4 ovarian
[26] = test system: RPMI-8226 leukemia
[27] = test system: A498 renal
[28] = test system: UO-31 renal
[29] = test system: NCI-H23 lung
[30] = test system: U251 CNS
[31] = test system: MDA-MB-231 breast
[32] = test system: NCI-H522 lung
[33] = test system: BT-549 breast
[34] = test system: COLO 205 colon
[35] = test system: RXF 393 renal
[36] = test system: SF-268 CNS
[37] = test system: HOP-92 NSCLC
[38] = test system: SK-MEL-28 melanoma
[39] = test system: MALME-3M melanoma
[40] = test system: K-562 leukemia
[41] = test system: DU-145 prostate
[42] = test system: HS 578T breast
[43] = test system: HCT-15 colon
[44] = test system: HCC-2998 colon
[45] = test system: HL-60(TB) leukemia
[46] = test system: OVCAR-5 ovarian
[47] = test system: MOLT-4 leukemia
[48] = test system: CCRF-CEM leukemia
[49] = test system: SNB-75 CNS
[50] = test system: SK-MEL-2 melanoma
[51] = test system: UACC-257 melanoma
[52] = test system: MDA-N
[53] = test system: SN12C renal
[54] = test system: PC-3 prostate
[55] = test system: TK-10 renal
[56] = test system: MCF7 breast
[57] = test system: SF-295 CNS
[58] = test system: EKVX NSCLC
[59] = test system: LOX IMVI melanoma

With `COc1ccc(/C=C2\N=C(c3ccccc3)N(N=C3NC(=O)CC(=O)N3)C2=O)cc1` the TGI [1] was > 100 µM, the TGI [2] was > 100 µM and the TGI [3] was > 100 µM. For the same molecule, the TGI [4] was > 100 µM, the TGI [5] was > 100 µM and the TGI [6] was > 100 µM. For the same molecule, the TGI [7] was > 100 µM, the TGI [8] was > 100 µM and the TGI [9] was > 100 µM. The TGI [10] was > 100 µM, the TGI [11] was > 100 µM and the TGI [12] was > 100 µM. For the same molecule, the TGI [13] was > 100 µM, the TGI [14] was > 100 µM and the TGI [15] was > 100 µM. The TGI [16] was > 100 µM, the TGI [17] was > 100 µM and the TGI [18] was > 100 µM. The TGI [19] was > 100 µM, the TGI [20] was > 100 µM and the TGI [21] was > 100 µM. The TGI [22] was > 100 µM, the TGI [23] was > 100 µM and the TGI [24] was > 100 µM. The TGI [25] was > 100 µM, the TGI [26] was > 100 µM and the TGI [27] was > 100 µM. For the same molecule, the TGI [28] was > 100 µM, the TGI [29] was > 100 µM and the TGI [30] was > 100 µM. The TGI [31] was > 100 µM, the TGI [32] was > 100 µM and the TGI [33] was > 100 µM. The TGI [34] was > 100 µM, the TGI [35] was > 100 µM and the TGI [36] was > 100 µM. The TGI [37] was > 100 µM, the TGI [38] was > 100 µM and the TGI [39] was > 100 µM. For the same molecule, the TGI [40] was > 100 µM, the TGI [41] was > 100 µM and the TGI [42] was > 100 µM. The TGI [43] was > 100 µM, the TGI [44] was > 100 µM and the TGI [45] was > 100 µM. For the same molecule, the TGI [46] was > 100 µM, the TGI [47] was > 100 µM and the TGI [48] was > 100 µM. The TGI [49] was > 100 µM, the TGI [50] was > 100 µM and the TGI [51] was > 100 µM. For the same molecule, the TGI [52] was > 100 µM, the TGI [53] was > 100 µM and the TGI [54] was > 100 µM. For the same molecule, the TGI [55] was > 100 µM and the TGI [56] was > 100 µM.

With `NCCCNC1(c2cc3ccccc3s2)CCCCC1` the TGI [1] was 30.4 µM, the TGI [2] was 10.9 µM and the TGI [3] was 3.31 µM. For the same molecule, the TGI [4] was 28.6 µM, the TGI [5] was 3.87 µM and the TGI [6] was 24.4 µM. For the same molecule, the TGI [57] was 24.8 µM, the TGI [7] was 4.06 µM and the TGI [8] was 33.3 µM. For the same molecule, the TGI [9] was 4.23 µM, the TGI [58] was 22.5 µM and the TGI [10] was 4.48 µM. For the same molecule, the TGI [11] was 24.4 µM, the TGI [12] was 21.5 µM and the TGI [13] was 22.6 µM. For the same molecule, the TGI [14] was 4.68 µM, the TGI [15] was 21.2 µM and the TGI [16] was 22.5 µM. It also gave a TGI [17] of 14.7 µM, a TGI [18] of 5.27 µM and a TGI [19] of 4.91 µM. It also gave a TGI [20] of 24.3 µM, a TGI [21] of 27.8 µM and a TGI [22] of 6.96 µM. The TGI [23] was 23 µM, the TGI [24] was 3.51 µM and the TGI [25] was 25.5 µM. It also gave a TGI [26] of 5.88 µM, a TGI [27] of 9.03 µM and a TGI [28] of 8.44 µM. It also gave a TGI [29] of 31.3 µM, a TGI [30] of 10 µM and a TGI [31] of 14.2 µM. It also gave a TGI [32] of 9.13 µM, a TGI [33] of 27.8 µM and a TGI [34] of 3.45 µM. For the same molecule, the TGI [35] was 17.3 µM, the TGI [36] was 24.7 µM and the TGI [37] was 25.5 µM. It also gave a TGI [38] of 4.59 µM, a TGI [39] of 3.65 µM and a TGI [40] of 5.38 µM. For the same molecule, the TGI [41] was 24.8 µM, the TGI [42] was 30.2 µM and the TGI [59] was 6.86 µM. For the same molecule, the TGI [43] was 17.7 µM, the TGI [44] was 2.98 µM and the TGI [45] was 14.8 µM. The TGI [46] was 26.3 µM, the TGI [47] was 15.7 µM and the TGI [48] was 13 µM. The TGI [49] was 24.2 µM, the TGI [50] was 4.2 µM and the TGI [51] was 3.23 µM. For the same molecule, the TGI [52] was 3.56 µM, the TGI [53] was 22.8 µM and the TGI [54] was 21 µM. The TGI [55] was 12 µM and the TGI [56] was 12.2 µM.

`Nc1[nH]c(=S)nc2snnc12` was tested, and the TGI [1] was > 100 µM, the TGI [2] was > 100 µM and the TGI [3] was > 100 µM. For the same molecule, the TGI [4] was > 100 µM, the TGI [5] was > 100 µM and the TGI [6] was > 100 µM. For the same molecule, the TGI [57] was > 100 µM, the TGI [7] was > 100 µM and the TGI [8] was > 100 µM. The TGI [9] was > 100 µM, the TGI [10] was > 100 µM and the TGI [11] was > 100 µM. The TGI [12] was > 100 µM, the TGI [13] was > 100 µM and the TGI [14] was > 100 µM. The TGI [15] was > 100 µM, the TGI [16] was > 100 µM and the TGI [17] was > 100 µM. The TGI [18] was > 100 µM, the TGI [19] was > 100 µM and the TGI [20] was > 100 µM. The TGI [21] was > 100 µM, the TGI [22] was > 100 µM and the TGI [23] was > 100 µM. For the same molecule, the TGI [26] was > 100 µM, the TGI [27] was > 100 µM and the TGI [28] was > 100 µM. The TGI [29] was > 100 µM, the TGI [31] was > 100 µM and the TGI [32] was > 100 µM. For the same molecule, the TGI [33] was > 100 µM, the TGI [34] was > 100 µM and the TGI [35] was > 100 µM. The TGI [36] was > 100 µM, the TGI [37] was > 100 µM and the TGI [38] was > 100 µM. The TGI [39] was > 100 µM, the TGI [40] was > 100 µM and the TGI [41] was > 100 µM. The TGI [42] was > 100 µM, the TGI [59] was > 100 µM and the TGI [43] was > 100 µM. The TGI [44] was > 100 µM, the TGI [45] was > 100 µM and the TGI [46] was > 100 µM. For the same molecule, the TGI [47] was > 100 µM, the TGI [48] was > 100 µM and the TGI [49] was > 100 µM. The TGI [50] was > 100 µM, the TGI [51] was > 100 µM and the TGI [52] was > 100 µM. For the same molecule, the TGI [53] was > 100 µM, the TGI [54] was > 100 µM and the TGI [55] was > 100 µM. The TGI [56] was > 100 µM.

With `CCOC(=O)C(O)(NC(=O)c1ccccc1F)C(F)(F)F` (stereo unspecified) the TGI [1] was > 100 µM, the TGI [2] was > 100 µM and the TGI [3] was > 100 µM. For the same molecule, the TGI [4] was > 100 µM, the TGI [5] was > 100 µM and the TGI [6] was > 100 µM. For the same molecule, the TGI [57] was > 100 µM, the TGI [8] was > 100 µM and the TGI [9] was > 100 µM. The TGI [58] was > 100 µM, the TGI [10] was > 100 µM and the TGI [11] was > 100 µM. For the same molecule, the TGI [12] was > 100 µM, the TGI [13] was > 100 µM and the TGI [14] was > 100 µM. For the same molecule, the TGI [15] was > 100 µM, the TGI [16] was > 100 µM and the TGI [17] was > 100 µM. For the same molecule, the TGI [19] was > 100 µM, the TGI [20] was > 100 µM and the TGI [21] was > 100 µM. The TGI [22] was > 100 µM, the TGI [23] was > 100 µM and the TGI [24] was > 100 µM. For the same molecule, the TGI [25] was > 100 µM, the TGI [26] was > 100 µM and the TGI [28] was > 100 µM. The TGI [29] was > 100 µM, the TGI [30] was > 100 µM and the TGI [31] was > 100 µM. For the same molecule, the TGI [32] was > 100 µM, the TGI [33] was > 100 µM and the TGI [34] was > 100 µM. The TGI [35] was > 100 µM, the TGI [36] was > 100 µM and the TGI [37] was > 100 µM. The TGI [38] was > 100 µM, the TGI [39] was > 100 µM and the TGI [40] was > 100 µM. For the same molecule, the TGI [41] was > 100 µM, the TGI [42] was > 100 µM and the TGI [59] was > 100 µM. The TGI [43] was > 100 µM, the TGI [44] was > 100 µM and the TGI [45] was > 100 µM. For the same molecule, the TGI [46] was > 100 µM, the TGI [47] was > 100 µM and the TGI [48] was > 100 µM. The TGI [49] was > 100 µM, the TGI [50] was > 100 µM and the TGI [51] was > 100 µM. For the same molecule, the TGI [52] was > 100 µM, the TGI [53] was > 100 µM and the TGI [54] was > 100 µM. For the same molecule, the TGI [55] was > 100 µM and the TGI [56] was > 100 µM.

— PubChem BioAssay (NCI)
